Patent publication US20150011751A1, “NOVEL TRIAZINE DERIVATIVE” (CARNA BIOSCIENCES, INC., priority 2012, published 2015)

target: Dephosphorylated BTK (Homo sapiens, UniProt Q06187); test: Test of activity inhibition against dephosphorylated BTK (mobility shift assay)
Sequence (Q06187 whole entry): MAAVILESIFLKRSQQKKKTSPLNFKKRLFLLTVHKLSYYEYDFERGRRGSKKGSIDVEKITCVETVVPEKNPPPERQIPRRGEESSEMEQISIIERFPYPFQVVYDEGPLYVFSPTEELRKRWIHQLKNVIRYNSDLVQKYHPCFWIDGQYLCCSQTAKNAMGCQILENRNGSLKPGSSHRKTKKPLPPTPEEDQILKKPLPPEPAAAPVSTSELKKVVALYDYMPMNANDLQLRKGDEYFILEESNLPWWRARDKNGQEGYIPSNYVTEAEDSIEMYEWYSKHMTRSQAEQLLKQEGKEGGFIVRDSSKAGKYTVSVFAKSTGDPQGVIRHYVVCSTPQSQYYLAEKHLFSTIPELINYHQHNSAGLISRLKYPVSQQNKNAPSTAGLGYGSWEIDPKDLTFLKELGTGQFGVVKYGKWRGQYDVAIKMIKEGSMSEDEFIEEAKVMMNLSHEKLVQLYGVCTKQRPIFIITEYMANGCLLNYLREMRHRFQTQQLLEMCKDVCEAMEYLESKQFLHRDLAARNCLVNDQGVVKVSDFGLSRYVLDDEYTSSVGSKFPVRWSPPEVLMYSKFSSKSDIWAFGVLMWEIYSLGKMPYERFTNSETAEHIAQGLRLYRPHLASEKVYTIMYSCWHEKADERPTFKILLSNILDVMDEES

Going from CC(C)(C)c1ccc(C(=O)Nc2cccc(-c3nc(N)nc(Nc4ccc(N5CCS(=O)(=O)CC5)cc4)n3)c2CO)cc1 [Example 124, N-[3-(4-Amino-6-{[4-(1,1-dioxidothiomorpho-lino)phenyl]amino}-1,3,5-triazin-2-yl)-2-(hy-droxymethyl)phenyl]-4-(tert-butyl)benzamide] to Cc1c(NC(=O)c2ccc(C(C)(C)C)cc2)cccc1-c1nc(N)nc(Nc2ccc(N3CCC(O)CC3)cc2)n1 [Example 87, N-[3-(4-Amino-6-{[4-(4-hydroxypiperidin-1-yl)phenyl]amino}-1,3,5-triazin-2-yl)-2-meth-ylphenyl]-4-(tert-butyl)benzamide], the IC50 rises from 0.5 nM to 1.4 nM (2.8-fold). The first is the more potent here.

Compared with CC(C)(C)c1ccc(C(=O)Nc2cccc(-c3nc(N)nc(Nc4ccc(Cn5cncn5)cc4)n3)c2CO)cc1 [Example 164, N-{3-[4-({4-[(1H-1,2,4-Triazol-1-yl)methyl]phenyl}amino)-6-amino-1,3,5-triazin-2-yl]-2-(hydroxymethyl)phe-nyl}-4-(tert-butyl) benzamide], CC(C)(C)c1ccc(C(=O)Nc2cccc(-c3nc(N)nc(Nc4ccc(OCCOCCO)cc4)n3)c2CO)cc1 [Example 151, N-{3-[4-Amino-6-({4-[2-(2-hydroxyethoxy)eth-oxy]phenyl}amino)-1,3,5-triazin-2-yl]-2-(hy-droxymethyl)phenyl}-4-(tert-butyl)benzamide] is 2.6-fold higher in IC50: 0.5 nM for the first, 1.3 nM for the second.

CC(C)(C)n1cc(Nc2nc(N)nc(-c3cccc(N4CCc5cc(C6CC6)cc(F)c5C4=O)c3CO)n2)cn1 [Example 241, 2-[3-(4-Amino-6-{[1-(tert-butyl)-1H-pyrazol-4-yl]amino}-1,3,5-tri-azin-2-yl)-2-(hydroxy-methyl)phenyl]-6-cyclo-propyl-8-fluoro-3,4-dihydroisoquinolin-1(2H)-one] and CC(C)n1cc(Nc2nc(N)nc(-c3cccc(N4CCc5cc(C6CC6)cc(F)c5C4=O)c3CO)n2)cn1 [Example 222, 2-(3-{4-Amino-6-[(1-iso-propyl-1H-pyrazol-4-yl)amino]-1,3,5-tria-zin-2-yl}-2-(hydroxymeth-yl)phenyl)-6-cyclo-propyl-8-fluoro-3,4-di-hydroisoquinolin-1(2H)-one] are within 1.5-fold of each other in IC50: 0.6 nM for the first, 0.4 nM for the second.

COCCOc1ccc(Nc2nc(N)nc(-c3cccc(N4CCc5cc(C6CC6)cc(F)c5C4=O)c3CO)n2)cc1OCCOC [Example 48, 2-[3-(4-Amino-6-{[3,4-bis(2-methoxyethoxy)phenyl]amino}-1,3,5-tri-azin-2-yl}-2-(hydroxy-methyl)phenyl]-6-cyclo-propyl-8-fluoro-3,4-dihydroisoquinolin-1(2H)-one] and CC(C)n1ccc(Nc2nc(N)nc(-c3cccc(N4CCc5cc(C6CC6)cc(F)c5C4=O)c3CO)n2)c1 [Example 229, 2-(3-{4-Amino-6-[(1-iso-propyl-1H-pyrrol-3-yl)amino]-1,3,5-triazin-2-yl}-2-(hydroxymeth-yl)phenyl)-6-cyclopro-pyl-8-fluoro-3,4-di-hydroisoquinolin-1(2H)-one] are within 1.5-fold of each other in IC50: 3.4 nM for the first, 2.5 nM for the second.

Compared with Nc1nc(Nc2ccc(N3CCCC(O)C3)cc2)nc(-c2cccc(N3CCc4cc(C5CC5)cc(F)c4C3=O)c2CO)n1 (stereo not shown) [Example 53, 2-[3-(4-Amino-6-{[4-(3-hydroxypiperidin-1-yl)phenyl]amino}-1,3,5-triazin-2-yl)-2-(hy-droxymethyl)phenyl]-6-cyclopropyl-8-fluoro-3,4-dihydroisoquinolin-1(2H)-one], Nc1nc(Nc2ccc(Cn3cncn3)cc2)nc(-c2cccc(N3CCc4cc(C5CC5)cc(F)c4C3=O)c2CO)n1 [Example 49, 2-{3-[4-({4-[(1H-1,2,4-Triazol-1-yl)methyl]phenyl}amino)-6-amino-1,3,5-triazin-2-yl]-2-(hydroxymethyl)phe-nyl}-6-cyclopropyl-8-fluoro-3,4-dihydroiso-quinolin-1(2H)-one] is 1.6-fold lower in IC50: 1.8 nM for the first, 1.1 nM for the second. The second is the more potent here.

CN1CCN(C)C(c2ccc(Nc3nc(N)nc(-c4cccc(NC(=O)c5cc6c(s5)CCCC6)c4CO)n3)cc2)C1=O (stereo not shown) [Example 130, N-[3-(4-Amino-6-{[4-(1,4-dimethyl-3-oxopipe-razin-2-yl)phenyl]ami-no}-1,3,5-triazin-2-yl)-2-(hydroxymethyl)phenyl]-4,5,6,7-tetra-hydrobenzo[b]thiophene-2-carboxamide] and Nc1nc(Nc2ccc(CN3CCOCC3)cc2)nc(-c2cccc(NC(=O)c3cc4c(s3)CCCC4)c2CO)n1 [Example 132, N-[3-(4-Amino-6-{[4-(mor-pholinomethyl)phe-nyl]amino}-1,3,5-triazin-2-yl)-2-(hydroxymeth-yl)phenyl]-4,5,6,7-tetrahydrobenzo[b]thio-phene-2-carboxamide] are the same in IC50: 0.5 nM for the first, 0.5 nM for the second.

First: Nc1nc(Nc2cnn(C3CCOCC3)c2)nc(-c2cccc(N3CCc4cc(C5CC5)cc(F)c4C3=O)c2CO)n1 [Example 218, 2-[3-(4-Amino-6-{[1-(tetra-hydro-2H-pyran-4-yl)-1H-pyrazol-4-yl]amino}-1,3,5-triazin-2-yl)-2-(hydroxymethyl)phenyl]-6-cycloprop-yl-8-fluoro-3,4-dihydro-isoquinolin-1(2H)-one]
Second: Nc1nc(Nc2cnn(CC(=O)N3CCCC3)c2)nc(-c2cccc(N3CCc4cc(C5CC5)cc(F)c4C3=O)c2CO)n1 [Example 260, 2-{3-[4-Amino-6-({1-[2-oxo-2-(pyrrolidin-1-yl)ethyl]-1H-pyrazol-4-yl}amino)-1,3,5-tri-azin-2-yl]-2-(hydroxy-methyl)phenyl}-6-cyclo-propyl-8-fluoro-3,4-dihydroisoquinolin-1 (2H)-one]
The IC50 of the first is 4.5-fold lower: 0.2 nM for the first, 0.9 nM for the second.

COCCOc1ccc(Nc2nc(N)nc(-c3cccc(NC(=O)c4cc5c(s4)CCCC5)c3CO)n2)cc1OCCOC [Example 131, N-[3-(4-Amino-6-{[3,4-bis(2-methoxyethoxy)phenyl]amino}-1,3,5-tri-azin-2-yl)-2-(hydroxy-methyl)phenyl]-4,5,6,7-tetrahydrobenzo[b] thiophene-2-carboxamide] and COc1cc(Nc2nc(N)nc(-c3cccc(NC(=O)c4ccc(C(C)(C)C)cc4)c3CO)n2)cc(OC)c1OCCCO [Example 188, N-[3-(4-Amino-6-{[4-(3-hyroxypropoxy)-3,5-dimethoxyphenyl]ami-no}-1,3,5-triazin-2-yl)-2-(hydroxymethyl)phe-nyl]-4-(tert-butyl) benzamide] are the same in IC50: 0.4 nM for the first, 0.4 nM for the second.

Nc1nc(Nc2ccc(N3CCOCC3)cc2)nc(-c2cccc(N3CCc4c(sc5c4CCCC5)C3=O)c2CO)n1 [Example 227, 2-(3-{4-Amino-6-[(4-morpho-linophenyl)amino]-1,3,5-triazin-2-yl}-2-(hydroxymethyl)phe-nyl)-3,4,5,6,7,8-hexa-hydrobenzo[4,5]thieno [2,3-c]pyridin-1(2H)-one] and CC(C)(C)c1cc2c(s1)C(=O)N(c1cccc(-c3nc(N)nc(Nc4ccc(CN5CCOCC5)cc4)n3)c1CO)C2 [Example 77, 5-[3-(4-Amino-6-{[4-(morpho-linomethyl)phe-nyl]amino}-1,3,5-triazin-2-yl)-2-(hydroxymeth-yl)phenyl]-2-(tert-butyl)-4H-thieno[2,3-c]pyrrol-6(5H)-one] are within 1.5-fold of each other in IC50: 3.5 nM for the first, 3.4 nM for the second.

Molecule Cc1cc(Nc2nc(N)nc(-c3cccc(N4CCc5cc(C6CC6)cc(F)c5C4=O)c3CO)n2)n[nH]1 [Example 205, 2-(3-{4-Amino-6-[(5-meth-yl-1H-pyrazol-3-yl)amino]-1,3,5-triazin-2-yl}-2-(hydroxymeth-yl)phenyl)-6-cyclopro-pyl-8-fluoro-3,4-dihy-droisoquinolin-1(2H)-one] has an IC50 of 9.9 nM.
